Laboratory results taken from patent publication US7799824B2, “Quaternary salt CCR2 antagonists” (OraPharma, Inc., priority 2004, dated 2010).
Values joined by “and” are separate entries in the source; they are usually repeats but may differ in a detail not shown here. Equal entries are not always repeated. Values belong to the compound of their own block, whether it stands above or below them.

How the values were obtained:
[1] = tested on: Ovalbumin-induced Allergic Rhinitis; experiment: Ovalbumin-induced allergic rhinitis in mice, prophylactic effect; format: in vivo, BALB/c mice
Method: BALB/c mice were sensitized by i.p. injection of OVA emulsified in alum (Day 0, 5, 14, 21). Groups of mice were each challenged by intranasal injection of OVA (Day 22-35, 38). Control group mice received an equal volume of vehicle by intranasal injection. Nasal symptoms (number of sneezes and episodes of nose rubbing by the front paws) were counted during the 5 min period following the last intranasal injection (Day 38). […] The histamine receptor antagonist […]® was used as a positive control.

[2] = tested on: ovalbumin (OVA)-induced asthma; experiment: Ovalbumin (OVA)-induced asthma in mice, mast cell-independent model; format: in vivo
Method: Mice were sensitized by i.p. injection of OVA emulsified in adjuvant (Day 1 and 14). Groups of mice were each challenged by intranasal injection of OVA (Day 25, 26, 27). Compound 17 was administered by i.p. injection (10 and 30 mg/kg) before each intranasal challenge (Day 25, 26, 27).

[3] = tested on: ovalbumin (OVA)-induced asthma; experiment: Ovalbumin (OVA)-induced asthma in mice, mast cell-dependent model; format: in vivo; settings: 30 mg/kg i.p., Day 42-46
Method: Mice were sensitized by i.p. injection with OVA in saline (10 μg) on alternate days (Day 0, 2, 4, 6, 8, 10, 12). Groups of mice were each challenged by intranasal injection of OVA (Day 40, 43, 46). Compound 17 was administered by i.p. injection (30 mg/kg) on consecutive days (Day 42, 43, 44, 45, 46). Compared to vehicle, leukocyte influx was inhibited by 95% and 55% (in two separate assays), LTC4 influx was inhibited by 90% and IL-4 influx was inhibited by 85%.

[4] = tested on: Ovalbumin-induced Allergic Rhinitis; experiment: Ovalbumin-induced allergic rhinitis in mice, therapeutic effect; format: in vivo, BALB/c mice
Method: BALB/c mice were sensitized by i.p. injection of OVA emulsified in alum (Day 0, 5, 14, 21). Groups of mice were each challenged by intranasal injection of OVA (Day 22-35, 38).
Control group mice received an equal volume of vehicle by intranasal injection. Nasal symptoms (number of sneezes and episodes of nose rubbing by the front paws) were counted during the 5 min period following the last intranasal injection (Day 38).
The anti-histamine Pyralimine and the mast cell-stabilizing agent Ketotifen were used as positive controls.

[5] = target: T1, CCR2 (Homo sapiens, UniProt P41597); experiment: MCP-1 Receptor Binding Assay in THP-1 Cells; settings: for IC50: THP-1 cells, 0.5 nM 125I labeled MCP-1, 2 hours at 30° C., read-out: Mean Ligand Binding IC50 (inhibition of MCP-1 binding to CCR2); for inhibition at 25 µM: MCP-1 binding to CCR2, test concentration of 25 μM, unless indicated otherwise, read-out: % Inhibition Ligand Binding
T1 sequence (P41597 1-360 isoform P41597-2): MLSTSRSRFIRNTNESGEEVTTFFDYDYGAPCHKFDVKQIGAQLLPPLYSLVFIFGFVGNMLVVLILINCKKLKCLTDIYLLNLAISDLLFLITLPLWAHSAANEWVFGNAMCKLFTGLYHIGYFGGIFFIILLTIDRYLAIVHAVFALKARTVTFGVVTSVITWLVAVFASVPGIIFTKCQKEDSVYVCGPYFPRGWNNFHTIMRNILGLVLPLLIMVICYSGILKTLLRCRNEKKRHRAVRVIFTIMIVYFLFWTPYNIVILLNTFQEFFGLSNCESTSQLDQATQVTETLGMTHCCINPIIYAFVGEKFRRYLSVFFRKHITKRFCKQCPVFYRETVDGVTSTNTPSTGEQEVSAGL
Summary of the method: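 THP-1 cells; bound radioactivity collected on filter plates and counted by scintillation. Buffer-only blanks subtracted, drug-treated values compared with vehicle; nonspecific binding defined with 1 μM unlabeled MCP-1.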

[6] = positive control, dose not given
[7] = intranasal 10 μg/nostril four times per day, Days 29-38
[8] = positive controls, dose not given

SMILES: CN1CCCC(n2nc(Cc3ccc(Cl)cc3)c3ccccc3c2=O)CC1 (stereo not shown) [Astelin, reference compound]
- inhibition of nasal symptoms (rubbing) [1, 6]: 89%
- inhibition of nasal symptoms (sneezing) [1, 6]: 51%

SMILES: C[N+](C)(Cc1ccc(NC(=O)c2ccc(Cl)c(Cl)c2)cc1)C1CCOCC1.[Cl-] [Cpd 17, [4-(3,4-dichloro-benzoylamino)-benzyl]-dimethyl-(tetrahydro-pyran-4-yl)-ammonium chloride]
- inhibition of leukocyte influx compared to vehicle ([2]; 10 mg/kg i.p. before each intranasal challenge): 40%
- inhibition of leukocyte influx compared to vehicle ([2]; 30 mg/kg i.p. before each intranasal challenge): 70%
- inhibition of IL-4 influx compared to vehicle [3]: 85%
- inhibition of LTC4 influx compared to vehicle [3]: 90%
- inhibition of leukocyte influx compared to vehicle ([3]; two separate assays): 95% and 55%
- inhibition of nasal symptoms (rubbing) ([1]; intranasal 10 μg/nostril): 57%
- inhibition of nasal symptoms (sneezing) ([1]; intranasal 10 μg/nostril): 64%
- inhibition of nasal symptoms (rubbing) ([1]; intranasal 30 μg/nostril): 71%
- inhibition of nasal symptoms (sneezing) ([1]; intranasal 30 μg/nostril): 82%
- inhibition of nasal symptoms (rubbing) [4, 7]: 42%
- inhibition of nasal symptoms (sneezing) [4, 7]: 0%

SMILES: C[N+](C)(Cc1ccc(NC(=O)C2=Cc3cc(Cl)c(Cl)cc3OCC2)cc1)C1CCOCC1 [Cpd 167, {4-[(7,8-dichloro-2,3-dihydro-benzo[b]oxepine-4-carbonyl)-amino]-benzyl}-dimethyl-(tetrahydro-pyran-4-yl)-ammonium iodide]
- IC50 [5]: 240 nM

SMILES: C[N+](C)(Cc1ccc(NC(=O)C2=Cc3cc(Cl)c(Cl)cc3OCC2)cc1)C1CCCCC1 [Cpd 168, cyclohexyl-{4-[(7,8-dichloro-2,3-dihydro-benzo[b]oxepine-4-carbonyl)-amino]-benzyl}-dimethyl-ammonium iodide]
- IC50 [5]: 1000 nM

SMILES: C[N+](C)(Cc1ccc(NC(=O)C2=Cc3cc(Cl)c(Cl)cc3OCC2)cc1)C1CC2CCC1C2 (stereo not shown) [Cpd 169, bicyclo[2.2.1]hept-2-yl-{4-[(7,8-dichloro-2,3-dihydro-benzo[b]oxepine-4-carbonyl)-amino]-benzyl}-dimethyl-ammonium iodide]
- IC50 [5]: 240 nM

SMILES: C[N+](C)(Cc1ccc(NC(=O)C2=Cc3cc(Cl)c(Cl)cc3OCC2)cc1)C1CCSC1 (stereo not shown) [Cpd 171, {4-[(7,8-dichloro-2,3-dihydro-benzo[b]oxepine-4-carbonyl)-amino]-benzyl}-dimethyl-(tetrahydro-thiophen-3-yl)-ammonium iodide]
- IC50 [5]: 560 nM

SMILES: C[N+](C)(Cc1ccc(NC(=O)c2ccnc(Cl)c2)cc1)C1CCOCC1 [Cpd 173, {4-[(2-chloro-pyridine-4-carbonyl)-amino]-benzyl}-dimethyl-(tetrahydro-pyran-4-yl)-ammonium iodide]
- IC50 [5]: 8100 nM

SMILES: C[N+](C)(Cc1ccc(NC(=O)c2sc3ccccc3c2Cl)cc1)C1CCOCC1 [Cpd 174, {4-[(3-chloro-benzo[b]thiophene-2-carbonyl)-amino]-benzyl}-dimethyl-(tetrahydro-pyran-4-yl)-ammonium iodide]
- inhibition at 25 µM [5]: 52%

SMILES: C[N+](C)(Cc1ccc(NC(=O)c2cc3ccccc3s2)cc1)C1CCCCC1 [Cpd 177, {4-[(benzo[b]thiophene-2-carbonyl)-amino]-benzyl}-cyclohexyl-dimethyl-ammonium iodide]
- IC50 [5]: 170 nM

SMILES: CN1CCC(=C2c3ccccc3CC(=O)c3sccc32)CC1 [Ketotifen]
- inhibition of nasal symptoms (rubbing) [4, 8]: 81%
- inhibition of nasal symptoms (sneezing) [4, 8]: 50%

SMILES: COc1ccc(CN(CCN(C)C)c2ccccn2)cc1 [Pyralimine]
- inhibition of nasal symptoms (rubbing) [4, 8]: 85%
- inhibition of nasal symptoms (sneezing) [4, 8]: 60%

Now from value to compound:

- IC50 [5]: 3300 nM
SMILES: C[N+](C)(Cc1ccc(NC(=O)c2cc3cc(Cl)ccc3[nH]2)cc1)C[C@@H]1CCCO1 [Cpd 165, (2S)-{4-[(5-chloro-1H-indole-2-carbonyl)-amino]-benzyl}-dimethyl-(tetrahydro-furan-2-ylmethyl)-ammonium iodide]

- IC50 [5]: 110 nM
SMILES: C[N+](C)(Cc1ccc(NC(=O)c2cc3cc(Cl)ccc3[nH]2)cc1)CC1CC2CCC1C2 (stereo not shown) [Cpd 166, bicyclo[2.2.1]hept-2-ylmethyl-{4-[(5-chloro-1H-indole-2-carbonyl)-amino]-benzyl}-dimethyl-ammonium iodide]

- inhibition at 25 µM [5]: 36%
SMILES: C[N+](C)(Cc1ccc(CNC(=O)C2=Cc3cc(Cl)c(Cl)cc3OCC2)cc1)C1CCOCC1 [Cpd 170, (4-{[(7,8-dichloro-2,3-dihydro-benzo[b]oxepine-4-carbonyl)-amino]-methyl}-benzyl)-dimethyl-(tetrahydro-pyran-4-yl)-ammonium iodide]

- inhibition at 25 µM [5]: 17%
SMILES: C[N+](C)(Cc1ccc(NC(=O)c2cncc(Br)c2)cc1)C1CCOCC1 [Cpd 172, {4-[(5-bromo-pyridine-3-carbonyl)-amino]-benzyl}-dimethyl-(tetrahydro-pyran-4-yl)-ammonium iodide]

- IC50 [5]: 1500 nM
SMILES: C[N+](C)(Cc1ccc(NC(=O)c2cc(Cl)sc2Cl)cc1)C1CCOCC1 [Cpd 175, {4-[(2,5-dichloro-thiophene-3-carbonyl)-amino]-benzyl}-dimethyl-(tetrahydro-pyran-4-yl)-ammonium iodide]

- IC50 [5]: 260 nM
SMILES: C[N+](C)(Cc1ccc(NC(=O)c2cc3ccccc3s2)cc1)C1CCOCC1 [Cpd 176, {4-[(benzo[b]thiophene-2-carbonyl)-amino]-benzyl}-dimethyl-(tetrahydro-pyran-4-yl)-ammonium iodide]

- IC50 [5]: 8800 nM
SMILES: C[N+](C)(Cc1ccc(NC(=O)c2sc3ccccc3c2Cl)cc1)C1CCCCC1 [Cpd 178, {4-[(3-chloro-benzo[b]thiophene-2-carbonyl)-amino]-benzyl}-cyclohexyl-dimethyl-ammonium iodide]
